# From patent US11738072B2, “Tumor vaccine and uses thereof” (WestVac Biopharma Co., Ltd., priority 2017, dated 2023)
# Assays:
# [1] = system: lysosomes of A549 cells; experiment: Lysosomal membrane permeability by CathepsinB intracellular localization; format: cell-based; conditions: 3 h, immunofluorescence, confocal microscope
# Method: (1) Inoculation of A549 cells in plates: round sterilized cell slides were placed at the bottom of a 6-well plate, inoculated A549 cells into the 6-well plate as per 1×10^5 cells/well, 2 ml of medium was added to each well, and incubated overnight.
# (2) The medium (blank control group), pMVA-1 plasmid (control group PMVA), DOTAP cationic lipid (control group DOTAP) and pMVA-1/DOTAP complex (experimental group PMVA-DOTAP) were added to A549 cells cultured in the Step (1), and incubated at 37° C. for 3 h.
# (3) A549 cells treated by different groups in Step (2) were washed twice with PBS, stabilized with ice methanol for 3 min, washed twice with PBS, and sealed with PBST containing 0.3% Triton of 5% FBS for 20 min.
# (4) The cells in Step (3) were washed once with PBS, and the human CathepsinB antibody (made by Abcam) was diluted at a ratio of 1:300. Incubating at room temperature for 1 h, washing with PBS three times for 5 minutes each time, adding 1:1000 fluorescent secondary antibody, and incubating at room temperature for 1 h in the dark.
# (5) The cells in Step (4) were washed with PBS for three times, the films were washed with ultrapure water to remove excess water, and sealed with anti-fluorescence quencher, then cured for 6 h. Fluorescent cells were observed under a confocal microscope and the images were saved.
# [2] = system: lysosomes in A549 cells; experiment: Lysosomal acidity gradient by Lysotracker Red / YOYO1 probes; format: cell-based; conditions: flow cytometry, 1 h, 3 h, 6 h and 9 h
# Method: a. Preparation of YOYO1 working fluid: the YOYO1 stock solution was diluted with 1640 serum-free medium at the volume ratio of 1:200;
# b. The pMVA-1 plasmid was added to the YOYO1 working fluid prepared in the Step (1) according to a volume ratio of 1:40, and incubated at 37° C. for 1 h.
# a. The YOYO1 fluorescent labeled pMVA-1 plasmid prepared in Step 1 was mixed with the DOTAP cationic lipid to form a complex;
# b. The YOYO1 fluorescently labeled pMVA-1/DOTAP complex prepared in Step a was added to A549 cells, followed by making two control groups i.e. YOYO1 fluorescently labeled pMVA-1 plasmid group (PMVA) and DOTAP cationic lipid group (DOTAP), and blank control group containing cell culture fluid only.
# (1) Preparation of Lysotracher Red working fluid: the Lysotracher Red stock solution was added to the cell culture fluid at a volume ratio of 1:20000 and incubated at 37° C.
# a. The A549 cell culture fluid in Step 1 was removed, the Lysotracker Red staining working fluid prepared in Step (1) was added to the cells, and incubated at 37° C. for 1 h; […]
# c. A549 cells in Step b were collected and the number of fluorescent cells were quantitatively tested by flow cytometry.
# [3] = system: lysosomes of A549 cells; experiment: Lysosomal membrane permeability by FITC-Dextran cell localization; format: cell-based; conditions: 3 h, confocal microscope; dispersed = increased LMP
# Method: (1) Inoculation of A549 cells in plates: A549 cells in the logarithmic growth phase were prepared into a cell suspension, inoculated into a 6-well plate as per approximately 1×10^5 cells/well. Then, 2 ml of medium was added to each well, and cultured overnight in a 5% CO2 incubator at 37° C.
# (2) FITC-Dextran (made by Sigma) with a final concentration of 1 mg/ml was added to the cell medium in Step (1), and incubated at 37° C. for 4 h in the dark.
# (3) The cells in Step (2) were washed twice with sterile PBS, 1640 medium was added, thus allowing A549 cells to be treated with the medium (blank control group), pMVA-1 plasmid (control group PMVA), DOTAP cationic lipid (control group DOTAP) and pMVA-1/DOTAP complex (experimental group PMVA-DOTAP) respectively, and incubated at 37° C. for 3 h in the dark.
# (4) The cells in Step (3) were washed twice with PBS, stabilized with 4% paraformaldehyde for 10 min, washed twice with PBS, sealed. Fluorecytes were observed under a confocal microscope and the images were saved.
# [4] = system: CT26 cells; experiment: CT26 cell death test by PI-AnnexinV (fluorescence microscope); format: cell-based, mouse; conditions: CT26, 24 h
# Text: (1) Experimental method: same as 1.
# [5] = system: mouse colorectal cancer cell line CT26; experiment: Experiment (1): model mice with abdominal metastasis of CT26, treated 9 times; format: in vivo
# Method: Balb/c mice aged 6-8 weeks were raised. The mouse colorectal cancer cell line CT26 cultured to the logarithmic growth phase was prepared into a cell suspension, and mouse abdominal tumor was modeled by intraperitoneal injection. The number of cells injected into each mouse was 2×10^5, and the injection system was 100 μl for each mouse.
# As described in Table 14, the mice that had been successfully modeled were divided into groups as follows: Normal group was not inoculated with tumor cell nor administrated with drugs; untreated group was intraperitoneally inoculated with CT26 cells instead of drugs; NS group was intraperitoneally inoculated with tumor cells and administrated with normal saline. After inoculation of the tumor, mice were intraperitoneally administrated on the 3rd day as follows: 15 μg of plasmid DNA and 75 μg of DOTAP for each mouse in the treatment group of plasmid DNA/DOTAP complex group; i.e. the mass ratio of plasmid DNA to DOTAP was 1:5. After that, they were administrated every three days for a total of 9 times.
# The mice were administrated for 9 times in total and allowed to die naturally. The natural death dates of the mice in each experimental group were recorded, and the body weight and survival time of the mice in each experimental group were counted. The volume of ascites were counted, tumors were removed and weighed.
structure (smiles),measurement,setting,value
"CCCCCCCC/C=C\CCCCCCCC(=O)OCC(C[N+](C)(C)C)OC(=O)CCCCCCC/C=C\CCCCCCCC (stereo not shown) [DOTAP, 1,2-dioleoyl-3-trimethylammonium-propane]",distribution of Cathepsin B in A549 cells,[1],distributed in dots
same,Lysotracker Red fluorescence intensity,[2],did not change significantly
same,distribution of FITC-Dextran in cytoplasm of A549 cells,[3],distributed in dots
same,PI-positive and AnnexinV-positive cells,[4],did not indicate obvious PI uptake and obvious AnnexinV-labeled positive cells
same,average ascites volume,[5]; 15 μg pMVA-1 and/or 75 μg DOTAP ip every 3 days x9,3.11 mL
same,day after inoculation of the tumor cells on which all mice of the group had died,"[5]; 15 μg pMVA-1 and/or 75 μg DOTAP ip every 3 days x9, natural death",39 days
same,average tumor weight,[5]; abdominal tumor weighed after the mice died,8.23 g
